Test results from PubChem BioAssay (NCI).
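These data come from cells grown in 96-well plates and exposed to compound for 48 hours at five concentrations. TGI: concentration producing complete growth inhibition.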

Columns and labels:
Assay in all cases: NCI tumour cell line growth inhibition, 48 h
[1] = system: U251 CNS
[2] = system: OVCAR-8 ovarian
[3] = system: HCC-2998 colon
[4] = system: HOP-62 NSCLC
[5] = system: NCI-H226 lung
[6] = system: BT-549 breast
[7] = system: SF-268 CNS
[8] = system: 786-0 renal
[9] = system: HS 578T breast
[10] = system: RPMI-8226 leukemia
[11] = system: SNB-75 CNS
[12] = system: SK-MEL-2 melanoma
[13] = system: K-562 leukemia
[14] = system: SR leukemia
[15] = system: IGROV1 ovarian
[16] = system: PC-3 prostate
[17] = system: UACC-257 melanoma
[18] = system: M14 melanoma
[19] = system: HCT-116 colon
[20] = system: SK-MEL-28 melanoma
[21] = system: UACC-62 melanoma
[22] = system: OVCAR-4 ovarian
[23] = system: A549 NSCLC
[24] = system: SF-539 CNS
[25] = system: HT29 colon
[26] = system: MCF7 breast
[27] = system: CAKI-1 renal
[28] = system: NCI-H522 lung
[29] = system: UO-31 renal
[30] = system: SF-295 CNS
[31] = system: MDA-MB-435
[32] = system: TK-10 renal
[33] = system: ACHN renal
[34] = system: MDA-MB-231 breast
[35] = system: SN12C renal
[36] = system: RXF 393 renal
[37] = system: CCRF-CEM leukemia
[38] = system: EKVX NSCLC
[39] = system: MALME-3M melanoma
[40] = system: DU-145 prostate
[41] = system: SK-MEL-5 melanoma
[42] = system: NCI-H460 lung
[43] = system: NCI-H23 lung
[44] = system: SW-620 colon
[45] = system: KM12 colon
[46] = system: SK-OV-3 ovarian
[47] = system: COLO 205 colon
[48] = system: MDA-N
[49] = system: T-47D breast
[50] = system: HOP-92 NSCLC
[51] = system: SNB-19 CNS
[52] = system: HCT-15 colon
[53] = system: MOLT-4 leukemia
[54] = system: OVCAR-5 ovarian
[55] = system: OVCAR-3 ovarian
[56] = system: LOX IMVI melanoma
[57] = system: NCI/ADR-RES ovarian
[58] = system: HL-60(TB) leukemia
[59] = system: A498 renal

Measured: TGI

CCOC(=O)c1cc2cc(CSc3ccccc3)ccc2oc1=O
not listed: [58] | [59]
> 100 µM: all other assays above

NC(=O)C1=C(c2ccccc2)c2ccccc2C1=O
26.3 µM: [14]
30.5 µM: [8]
29.5 µM: [3]
34.9 µM: [19]
7.71 µM: [37]
> 100 µM: [13]
40.9 µM: [49]
18.1 µM: [58]
64.2 µM: [9]
45.1 µM: [28]
33.5 µM: [22]
32.7 µM: [16] | [21]
36.2 µM: [11]
32.9 µM: [26]
26.8 µM: [52]
35.3 µM: [50]
30.4 µM: [27]
60.8 µM: [59]
37.5 µM: [5]
38.5 µM: [47]
38 µM: [57]
44.1 µM: [20]
34.2 µM: [25]
33.7 µM: [43]
53.9 µM: [54]
33.8 µM: [35]
28.3 µM: [4]
44.3 µM: [7]
33.6 µM: [41]
41.9 µM: [30]
35.1 µM: [1]
35.4 µM: [51]
65.8 µM: [31]
21.4 µM: [56]
14.9 µM: [53]
39.7 µM: [12]
72.4 µM: [10]
66.6 µM: [44]
37.6 µM: [23]
31.3 µM: [40]
23.5 µM: [33]
33.3 µM: [29] | [38]
30.6 µM: [15]
33.2 µM: [46]
38.1 µM: [48]
35.9 µM: [36]
31 µM: [2]
27.1 µM: [17]
36.8 µM: [18]
33.4 µM: [42]
24.6 µM: [55]
32.4 µM: [32] | [34]
30.9 µM: [6] | [45]

C=C1C(C[C@@H]2O[C@H]3C[C@H]4O[C@@]5(C[C@@H]6O[C@]7(C[C@H](C)[C@@H]8O[C@@H]9CC(C(O)CO)O[C@@H]9C[C@@H]8O7)C[C@H](C)[C@@H]6O5)C[C@H]4O[C@H]3[C@H](C)[C@H]2O)O[C@@H](CC[C@@H]2O[C@@H](CC[C@@]34CC5O[C@H]6C(O[C@H]7CC[C@H](CC(=O)OC)O[C@@H]7[C@@H]6O3)[C@H]5O4)CC2=C)C[C@H]1C (some centres undefined)
> 0.292 µM: [56]
0.0248 µM: [5]
0.0772 µM: [57]
> 0.783 µM: [23]
0.000183 µM: [31]
0.0035 µM: [47]
0.579 µM: [15]
0.000124 µM: [48]
0.0559 µM: [41]
0.0125 µM: [2]
0.00316 µM: [6]
0.0209 µM: [52]
not listed: [3] | [8] | [9] | [10] | [12] | [19] | [24] | [25] | [28] | [30] | [34] | [39] | [40] | [42] | [43] | [45] | [59]
> 1 µM: all other assays above

CSc1cc(Cl)c(C)cc1S(=O)(=O)NC(=O)NNc1ccccn1
not listed: [6] | [10] | [17] | [21] | [29] | [32] | [43] | [50] | [58]
> 100 µM: all other assays above

C/C=C/OC1C(C2COC(C)(C)O2)OC2OC(C)(C)OC21 (centres undefined)
not listed: [5] | [6] | [21] | [35] | [45] | [47]
> 100 µM: all other assays above

COc1ccc(NC(C)=O)c(C(=O)CCNC(C)=O)c1
not listed: [3] | [4] | [13] | [20] | [39]
> 100 µM: all other assays above

CCOC(=O)NC(N(C)C(C(C)C)P(=O)(OCC)OCC)(C(F)(F)F)C(F)(F)F (centres undefined)
not listed: [3] | [6] | [46]
> 100 µM: all other assays above
